SMILES strings stand for the structures. In brackets after ≈: the same amount, converted by molar mass.

A short description of data set [1]: Cytotoxicity against mouse RAW264.7 cells assessed as growth inhibition after 48 hrs by trypan blue assay. The class given is cell-based.
For data set [2], the system named is Mycolicibacterium smegmatis. As to the kind of experiment: Antibacterial activity against Mycobacterium smegmatis MC2 155 assessed as growth inhibition. The data set is classed as functional. To be noted: str. MC2 155.
A short description of data set [3]: Selectivity index, ratio of GI50 for mouse RAW264.7 cells to MIC for Mycobacterium tuberculosis H37Rv ATCC 27294. The class given is toxicity. To be noted: read-out: Selectivity Index.
For data set [4], the system named is Mycobacterium tuberculosis. As to the kind of experiment: Antibacterial activity against Mycobacterium tuberculosis H37Rv ATCC 27294 after 2 weeks by spot culture growth inhibition assay. The data set is classed as functional. To be noted: H37Rv ATCC 27294, 336 h.

Take `CC(=O)Nc1cccc(O)c1` [METACETAMOL]: in data set [1], the GI50 (usually the concentration that inhibits growth by half) at 48 h is 5340 µM. Besides, the MIC – broadly, the lowest concentration that inhibits growth of the organism – in data set [2] was over 600 µM; in data set [4], over 661 µM. In data set [3], the selectivity ratio is under 8.08.

As for `O=C(O)/C=C/c1ccccc1O` [O-COUMARIC ACID], in data set [1], the GI50 at 48 h was determined as 4560 µM. Moreover, the MIC was over 600 µM in data set [2] and 122 µM (≈ 20 µg/mL) in data set [4]. Moreover, in data set [3], the selectivity ratio was 37.4.

As for `O=C(O)/C=C/c1ccc2c(c1)OCO2`, the values for the MIC in data set [2] and in data set [4] were over 600 µM and 312 µM (≈ 60 µg/mL), respectively. Moreover, in data set [3], the selectivity ratio amounted to 8.8.

Turning to `COC(=O)/C=C/c1ccccc1O`, in data set [1], the GI50 at 48 h was found to be 1120 µM. Besides, the MIC is over 600 µM in data set [2] and 112 µM (≈ 20 µg/mL) in data set [4]. For the same molecule, the selectivity ratio in data set [3] stood at 10.

As for `CC(C)=CCOc1cccc(/C=C/C(=O)O)c1`, the MIC in data set [2] was over 600 µM; in data set [4] it was 172 µM (≈ 40 µg/mL). Moreover, in data set [3], the selectivity ratio was 7.53.

On to `O=C(O)/C=C/c1ccccc1` [CINNAMIC ACID], for which the GI50 at 48 h in data set [1] was found to be 6550 µM. Also, the MIC is over 600 µM in data set [2] and 270 µM (≈ 40 µg/mL) in data set [4]. The selectivity ratio in data set [3] turned out to be 24.2.

As for `CO[C@H]1/C=C/O[C@@]2(C)Oc3c(C)c(O)c4c(O)c(c(/C=N/N5CCN(C)CC5)c(O)c4c3C2=O)NC(=O)/C(C)=C\C=C\[C@H](C)[C@H](O)[C@@H](C)[C@@H](O)[C@@H](C)[C@H](OC(C)=O)[C@@H]1C` [RIFAMPIN], in data set [1], the GI50 at 48 h was 850 µM. The selectivity ratio in data set [3] stood at 14000. Also, 0.0607 µM (≈ 0.05 µg/mL) was the least that counted as inhibitory in data set [4] (MIC).

In the case of `COC(=O)/C=C/c1cccc(O)c1`, the GI50 at 48 h in data set [1] was 850 µM. In addition, the MIC is over 600 µM in data set [2] and 224 µM (≈ 39.9 µg/mL) in data set [4]. For the same molecule, the selectivity ratio in data set [3] came to 3.8.

With `O=C(O)/C=C/c1cccc(O)c1`, the GI50 at 48 h in data set [1] stood at 5290 µM. The figures for the MIC in data set [2] and in data set [4] were over 600 µM and 366 µM (≈ 60.1 µg/mL), respectively. In addition, the selectivity ratio in data set [3] was found to be 14.5.

Regarding `O=C(O)/C=C/c1ccc(O)cc1` [COUMARIC ACID], the GI50 at 48 h in data set [1] came to 4560 µM. Moreover, the MIC in data set [2] is over 600 µM; in data set [4], 244 µM (≈ 40.1 µg/mL). Further, in data set [3], the selectivity ratio turned out to be 18.7.

With `NNC(=O)c1ccncc1` [ISONIAZID], in data set [1], the GI50 at 48 h is 21900 µM. In addition, in data set [3], the selectivity ratio came to 30000. This molecule gave an MIC in data set [4] of 0.73 µM (≈ 0.1 µg/mL).

Take `COC(=O)/C=C/c1cccc(OCC=C(C)C)c1`: the values for the MIC in data set [2] and in data set [4] were over 600 µM and 244 µM (≈ 60.1 µg/mL), respectively. The selectivity ratio in data set [3] turned out to be 12.2.

Consider `CC(C)=CCOc1ccc(/C=C/C(=O)O)cc1`, for which the GI50 at 48 h in data set [1] turned out to be 1340 µM. Besides, the MIC is over 600 µM in data set [2] and 86.1 µM (≈ 20 µg/mL) in data set [4]. For the same molecule, the selectivity ratio in data set [3] came out at 15.6.

As to `CC(C)=CCOc1ccccc1/C=C/C(=O)O`, the figures for the MIC in data set [2] and in data set [4] were over 600 µM and 258 µM (≈ 59.9 µg/mL), respectively. In addition, the selectivity ratio in data set [3] came out at 6.52.

`COC(=O)/C=C/c1ccc(OC/C=C(\C)CCC=C(C)C)cc1`: in data set [1], the GI50 at 48 h worked out at 159 µM. The MIC in data set [2] is over 600 µM; in data set [4] it was 127 µM (≈ 39.9 µg/mL). Also, in data set [3], the selectivity ratio is 1.25.

For `COC(=O)/C=C/c1ccc(O)cc1` [METHYL P-HYDROXYCINNAMATE], in data set [1], the GI50 at 48 h worked out at 609 µM. Moreover, the MIC in data set [2] is over 600 µM; in data set [4], 224 µM (≈ 39.9 µg/mL). Moreover, the selectivity ratio in data set [3] was determined as 2.72.

Regarding `CC(C)=CCC/C(C)=C/COc1ccc(/C=C/C(=O)O)cc1`, the GI50 at 48 h in data set [1] worked out at 210 µM. Besides, the MIC in data set [2] is over 600 µM; in data set [4], 66.8 µM (≈ 20.1 µg/mL). Further, in data set [3], the selectivity ratio came to 3.14.

Consider `CC(=O)Nc1ccccc1O`, for which, in data set [1], the GI50 at 48 h was 4200 µM. The values for the MIC in data set [2] and in data set [4] were over 600 µM and 132 µM (≈ 20 µg/mL), respectively. Also, in data set [3], the selectivity ratio stood at 31.8.

Take `COC(=O)/C=C/c1ccc(OCC=C(C)C)cc1`: the GI50 at 48 h in data set [1] came out at 487 µM. The MIC in data set [2] was over 600 µM; in data set [4] it was 81.2 µM (≈ 20 µg/mL). Besides, the selectivity ratio in data set [3] turned out to be 6.

With `COC(=O)/C=C/c1ccccc1OCC=C(C)C`, the MIC was over 600 µM in data set [2] and over 406 µM in data set [4]. Further, in data set [3], the selectivity ratio was under 6.4.

Regarding `CC(=O)Nc1ccc(O)cc1` [ACETAMINOPHEN], in data set [1], the GI50 at 48 h came out at 1000 µM. Also, the values for the MIC in data set [2] and in data set [4] were over 600 µM and over 661 µM, respectively. Besides, the selectivity ratio in data set [3] is under 1.52.

Values taken from ChEMBL document CHEMBL3132819, “2-Hydroxy-substituted cinnamic acids and acetanilides are selective growth inhibitors of Mycobacterium tuberculosis” (Medchemcomm, 2014).
